Experimental data: patent US6362212B1, “Oxime derivative and bactericide containing the same as active ingredient” (Shionogi & Company, Ltd., priority 1994, dated 2002)

Tests used:
[1] = tested on: Puccinia coronata; test: Controlling effect on Puccinia coronata by foliage application (pot experiment); type: in vivo; settings: foliage spray on oat (cv. PC-38) seedlings, infected area after 1 day moist chamber and 8 days greenhouse at 20° C.
Procedure, shortened: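 Oat seedlings (cv. PC-38, 2–3 weeks old) were sprayed with compound in DMF diluted with spreader-containing water, then inoculated 24 h later with P. coronata spores diluted in talc. Plants were held 1 day in a moist chamber at 20° C, then 8 days in a greenhouse at 20° C; percent control came from infected leaf area.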

[2] = tested on: Pyricularia oryzae; type: in vivo; settings: foliage spray on rice seedlings (cv. […]), number of lesions six days after the inoculation
[3] = tested on: Erysiphe graminis f. sp. tritici; test: Controlling effect on Erysiphe graminis f. sp. tritici by foliage application (pot experiment); type: in vivo; settings: Blumeria graminis, foliar, 240 h, foliage spray on wheat (cv. NORIN No. 61) seedlings, infected area after 10 days in greenhouse at 20° C., read-out: Controlling effect on ErYsiphe graminis f. sp. tritici by foliage application at 500 ppm (percent control)
Procedure, shortened: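 Wheat seedlings (cv. NORIN No. 61, 2-3 weeks old) sprayed with compound in DMF diluted in water with spreader, then inoculated with conidia 24 hours later. Kept in greenhouse at 20 °C for 10 days; percent control calculated from infected leaf area.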

[4] = tested on: Botrytis cinerea; test: Controlling effect on Botrytis cinerea by foliage application (pot experiment); type: in vivo; settings: foliage spray on cucumber (cv. TSUKUBASHIROIBO) first leaves, mycelial disks, lesion diameter after 3 days in moist chamber at 20° C.
[5] = tested on: Sphaerotheca fuliginea; test: Controlling effect on Sphaerotheca fuliginea by foliage application (pot experiment); type: in vivo; settings: Podosphaera fuliginea, in Cucumis sativus, foliar, 240 h, foliage spray on cucumber (cv. TSUKUBASHIROIBO) first leaves, infected area after 10 days in greenhouse at 20° C., read-out: Controlling effect on Sphaerotheca fuliginea by foliage application at 500 ppm (percent control)
Procedure, shortened: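 First leaves of cucumber seedlings, 2-3 weeks old, were sprayed with compound (DMF solution diluted in water with spreader). They were inoculated 24 h later with a Sphaerotheca fuliginea conidia spray and kept 10 days at 20° C in a greenhouse. Percent control was calculated from infected leaf area.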

| Structure (SMILES) | Controllng effect on Puccinia coronata by foliage application at 500 ppm (percent control) [1] [percent control] | melting point [°C] | Controlling effect on PYricularia orYzae by foliage application at 500 ppm (percent control) [2] [percent control] | pest or weed control at 500 ppm [3] [%] | Controlling effect on Botrytis cinerea by foliage application at 500 ppm (percent control) [4] [percent control] | pest or weed control at 500 ppm [5] [%] |
| --- | --- | --- | --- | --- | --- | --- |
| CON=C(c1ccccc1COc1cccc(Cl)c1)n1ccnc1 [Compound No. 6, 1-[2-(3-chlorophenoxymethyl)-α-methoxyiminobenzyl]imidazole] | 100 | 96.5 to 97.5 | 90 | 100 | 100 | – |
| CON=C(c1ncno1)c1ccccc1COc1ccc(Cl)cc1 [Compound No. 1584, 2-(4-chlorophenoxymethyl)phenyl 1,2,4-oxadiazol-5-yl ketone O-methyloxime] | 70 | 96 to 97.5 | 70 | 100 | – | 100 |
